Assay results published in patent US8975235B2, “Lysophosphatidic acid receptor antagonists” (InterMune, Inc., priority 2011, dated 2015).

Target: Human LPA1 (Homo sapiens, UniProt Q92633)
Assay: Beta-Arrestin based assay for human LPA1R antagonists (PathHunter)
Type: cell-based
Set-up: host or cells: CHO
Settings: CHO cells stably expressing ProLink tagged human LPA1R; agonist LPA 0.5 micromolar
Method: Beta-Arrestin Based Assays for Human LPA1R Antagonists and Agonists
A CHO cell line stably expressing the ProLink™ tagged human LPA1R was obtained from DiscoverX Inc, Fremont, Calif. In this system, β-Arrestin was fused to an N-terminal deletion mutant of β-galactosidase (termed the enzyme acceptor or EA), the human LPA1R was fused to a smaller (42 amino acids) weakly complementing fragment termed ProLink™. […] Cell handling and assays were performed according to protocols specified in the PathHunter® assays kits (DiscoverX, Fremont, Calif.). Assays were performed in quadruplicate in white 384 well plates. End point luminescence data were plotted and fit to a 4 parameter logistic function to obtain IC50 values. For antagonist assays, an […] concentration of agonist (LPA) equal to 0.5 micromolar was used.

Chain of Human LPA1 (Q92633 whole entry): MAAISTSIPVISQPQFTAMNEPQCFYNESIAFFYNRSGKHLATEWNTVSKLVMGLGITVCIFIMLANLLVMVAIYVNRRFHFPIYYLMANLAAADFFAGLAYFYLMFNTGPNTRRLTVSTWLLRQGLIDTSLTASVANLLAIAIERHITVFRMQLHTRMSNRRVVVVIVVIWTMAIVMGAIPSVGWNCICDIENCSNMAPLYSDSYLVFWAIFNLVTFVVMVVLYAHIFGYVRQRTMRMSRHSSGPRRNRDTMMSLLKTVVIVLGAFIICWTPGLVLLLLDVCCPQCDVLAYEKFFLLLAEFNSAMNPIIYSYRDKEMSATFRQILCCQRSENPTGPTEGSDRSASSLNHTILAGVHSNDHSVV

| Structure (SMILES) | EC50 [nM] |
| --- | --- |
| Cc1nsc(-c2ccc(-c3ccc(C4(C(=O)O)CC4)cc3)cc2)c1NC(=O)O[C@H](C)C1=C(Cl)CCC1 (single isomer, unassigned) [Compound 216] | < 50 |
| Cc1nsc(-c2ccc(-c3ccc(C4(C(=O)O)CC4)cc3)cc2)c1NC(=O)O[C@@H](C)C1=C(Cl)CCC1 (single isomer, unassigned) [Compound 217] | > 500 |
| CCOC(=O)Cc1ccc(-c2ccc(-c3onc(C)c3NS(=O)(=O)Cc3ccccc3)cc2)cc1 [Compound 15] | > 500 |
| CCOC(=O)Cc1ccc(-c2ccc(-c3onc(C)c3NS(=O)(=O)c3ccccc3)cc2)cc1 [Compound 18] | > 500 |
| Cc1noc(-c2ccc(-c3ccc4c(c3)CCCC4C(=O)O)cc2)c1NC(=O)O[C@H](C)c1ccccc1Cl (stereo partly shown) [Compound 21] | 50 to 500 |
| Cc1noc(-c2ccc(-c3ccc(C4(C(=O)O)CNC4)cc3)cc2)c1NC(=O)O[C@H](C)c1ccccc1Cl [Compound 34] | > 500 |
| COC(=O)N1CC(C(=O)O)(c2ccc(-c3ccc(-c4onc(C)c4NC(=O)O[C@H](C)c4ccccc4Cl)cc3)cc2)C1 [Compound 37] | < 50 |
| Cc1noc(-c2ccc(-c3ccc(C4(C(=O)O)CN(S(C)(=O)=O)C4)cc3)cc2)c1NC(=O)O[C@H](C)c1ccccc1Cl [Compound 38] | < 50 |
| Cc1noc(-c2ccc(-c3ccc(C4(C(=O)O)CN(C)C4)cc3)cc2)c1NC(=O)O[C@H](C)c1ccccc1Cl [Compound 39] | 50 to 500 |
| C[C@@H](OC(=O)Nc1c(-c2ccc(-c3ccc(C4(C(=O)O)CC4)cc3)cc2)oc2ccccc12)c1ccccc1Cl [Compound 42] | < 50 |
| Cc1cccc2c(NC(=O)O[C@H](C)c3ccccc3Cl)c(-c3ccc(-c4ccc(C5(C(=O)O)CC5)cc4)cc3)oc12 [Compound 51] | > 500 |
| Cc1ccc2oc(-c3ccc(-c4ccc(C5(C(=O)O)CC5)cc4)cc3)c(NC(=O)O[C@H](C)c3ccccc3Cl)c2c1 [Compound 53] | > 500 |
| Cc1nsc(-c2ccc(-c3ccc(C4(C(=O)O)CC4)cc3)cc2)c1NC(=O)OCc1ccccn1 [Compound 72] | > 500 |
| Cc1noc(-c2ccc(-c3ccc(C4(C(=O)O)CC4)cc3)cc2)c1NC(=O)OC1(c2ccccc2)CC1 [Compound 76] | 50 to 500 |
| Cc1nsc(-c2ccc3cc(C#CC4(C(=O)O)CC4)ccc3c2)c1NC(=O)OCc1ccccc1 [Compound 89] | 50 to 500 |
| Cc1nsc(C#Cc2ccc3cc(CC(=O)O)ccc3c2)c1NC(=O)OCc1ccccc1 [Compound 91] | > 500 |
| Cc1nsc(C#Cc2ccc3cc(C4(C(=O)O)CC4)ccc3c2)c1NC(=O)O[C@H](C)c1ccccc1 [Compound 92] | < 50 |
| Cc1nsc(-c2ccc(-c3ccc(C4(C(=O)O)CC4)cc3)cc2)c1NC(=O)OCc1ccc(Cl)cc1Cl [Compound 99] | > 500 |
| Cc1nsc(-c2ccc(-c3ccc(C4(C(=O)O)CC4)cc3)cc2)c1NC(=O)OCc1cccc(Cl)c1Cl [Compound 101] | > 500 |
| Cc1nsc(-c2ccc(-c3ccc(C4(C(=O)O)CC4)cc3)cc2)c1NC(=O)OCc1cccc(F)c1Cl [Compound 103] | 50 to 500 |
| Cc1nsc(-c2ccc(-c3ccc4c(ccn4CC(=O)O)c3)cc2)c1NC(=O)O[C@H](C)c1ccccc1Cl [Compound 104] | > 500 |
| O=C(Nc1ncsc1-c1ccc(-c2ccc(C3(C(=O)O)CC3)cc2)cc1)OCc1ccccc1 [Compound 111] | > 500 |
| C[C@@H](OC(=O)Nc1c(Cl)nsc1-c1ccc(-c2ccc(C3(C(=O)O)CC3)cc2)cc1)c1ccccc1 [Compound 112] | < 50 |
| Cc1cc(-c2snc(C)c2NC(=O)O[C@H](C)c2ccccc2Cl)ccc1-c1ccc(C2(C(=O)O)CC2)cc1 [Compound 116] | < 50 |
| Cc1nsc(-c2ccc(-c3ccc(C4(C(=O)O)CC4)cc3)c(F)c2)c1NC(=O)O[C@H](C)c1ccccc1Cl [Compound 117] | < 50 |
| Cc1nsc(-c2ccc(-c3ccc(C4(C(=O)O)CC4)cc3)cc2F)c1NC(=O)O[C@H](C)c1ccccc1Cl [Compound 119] | < 50 |
| Cc1nsc(-c2cc(Cl)c(-c3ccc(C4(C(=O)O)CC4)cc3)cc2F)c1NC(=O)O[C@H](C)c1ccccc1Cl [Compound 120] | < 50 |
| Cc1cc(-c2snc(C)c2NC(=O)O[C@H](C)c2ccccc2Cl)c(Cl)cc1-c1ccc(C2(C(=O)O)CC2)cc1 [Compound 122] | < 50 |

The next lines start with the values.

| EC50 [nM] | Structure (SMILES) |
| --- | --- |
| < 50 | Cc1noc(-c2ccc(-c3ccc(C(C(=O)O)c4ccccc4)cc3)cc2)c1NC(=O)O[C@H](C)c1ccccc1Cl (single isomer, unassigned) [Compound 16] |
| < 50 | Cc1noc(-c2ccc(-c3ccc4c(c3)CCC4C(=O)O)cc2)c1NC(=O)O[C@H](C)c1ccccc1Cl (single isomer, unassigned) [Compound 26] |
| > 500 | Cc1noc(-c2ccc(-c3ccc(CC(=O)O)cc3)cc2)c1NS(=O)(=O)Cc1ccccc1 [Compound 17] |
| > 500 | Cc1noc(-c2ccc(Nc3ccccc3C(=O)O)cc2)c1NC(=O)O[C@H](C)c1ccccc1Cl [Compound 22] |
| 50 to 500 | Cc1noc(-c2ccc(-c3ccc4c(c3)CCCC4C(=O)O)cc2)c1NC(=O)O[C@H](C)c1ccccc1Cl (stereo partly shown) [Compound 23] |
| 50 to 500 | Cc1noc(-c2ccc(-c3ccc4c(c3)CCCC4C(=O)O)cc2)c1NC(=O)O[C@H](C)c1ccccc1Cl (stereo partly shown) [Compound 24] |
| < 50 | Cc1noc(-c2ccc(-c3ccc4c(c3)CCC4C(=O)O)cc2)c1NC(=O)O[C@H](C)c1ccccc1Cl (stereo partly shown) [Compound 27] |
| 50 to 500 | C[C@@H](OC(=O)Nc1c(-c2ccc(-c3ccc(CC(=O)O)cc3)cc2)oc2ccccc12)c1ccccc1Cl [Compound 31] |
| < 50 | Cc1noc(-c2ccc(-c3ccc(C4(C(=O)O)CN(Cc5ccccc5)C4)cc3)cc2)c1NC(=O)O[C@H](C)c1ccccc1Cl [Compound 33] |
| 50 to 500 | CCNC(=O)N1CC(C(=O)O)(c2ccc(-c3ccc(-c4onc(C)c4NC(=O)O[C@H](C)c4ccccc4Cl)cc3)cc2)C1 [Compound 40] |
| > 500 | Cc1ccc2c(NC(=O)O[C@H](C)c3ccccc3Cl)c(-c3ccc(-c4ccc(C5(C(=O)O)CC5)cc4)cc3)oc2c1 [Compound 52] |
| 50 to 500 | C[C@@H](OC(=O)Nc1cnnn1-c1ccc(-c2ccc(C3(C(=O)O)CC3)cc2)cc1)c1ccccc1 [Compound 66] |
| < 50 | Cc1nsc(-c2ccc(-c3ccc(C(C(=O)O)c4ccccc4)cc3)cc2)c1NC(=O)O[C@H](C)c1ccccc1Cl (stereo partly shown) [Compound 69] |
| 50 to 500 | Cc1nsc(-c2ccc(-c3ccc(C4(C(=O)O)CC4)cc3)cc2)c1NC(=O)OCc1ccccc1F [Compound 73] |
| > 500 | Cc1noc2cc(-c3ccc(CC(=O)O)cc3)cc(NC(=O)O[C@H](C)c3ccccc3Cl)c12 [Compound 77] |
| 50 to 500 | Cc1nsc(-c2ccc(-c3ccc(C4(C(=O)O)CC4)cc3)cc2)c1NC(=O)O[C@H](C)c1ccccn1 [Compound 84] |
| 50 to 500 | Cc1ccccc1COC(=O)Nc1c(C)nsc1-c1ccc(-c2ccc(C3(C(=O)O)CC3)cc2)cc1 [Compound 85] |
| < 50 | Cc1nsc(-c2ccc3cc(C#CC4(C(=O)O)CC4)ccc3c2)c1NC(=O)O[C@H](C)c1ccccc1Cl [Compound 87] |

| EC50 [nM] | Structure (SMILES) |
| --- | --- |
| 50 to 500 | Cc1nsc(-c2ccc3cc(C#CC4(C(=O)O)CC4)ccc3c2)c1NC(=O)O[C@H](C)c1ccccc1 [Compound 88] |
| 50 to 500 | Cc1nsc(C#Cc2ccc3cc(CC(=O)O)ccc3c2)c1NC(=O)O[C@H](C)c1ccccc1 [Compound 90] |
| < 50 | Cc1nsc(C#Cc2ccc3cc(C4(C(=O)O)CC4)ccc3c2)c1NC(=O)O[C@H](C)c1ccccc1Cl [Compound 93] |
| 50 to 500 | Cc1nsc(C#Cc2ccc3cc(CC(=O)O)ccc3c2)c1NC(=O)O[C@H](C)c1ccccc1Cl [Compound 94] |
| > 500 | Cc1nsc(-c2ccc(-c3ccc(C4(C(=O)O)CC4)cc3)cc2)c1NC(=O)OC(C)C [Compound 95] |
| < 50 | Cc1nsc(-c2ccc(-c3ccc(C4(C(=O)O)CC4)cc3)cc2)c1NC(=O)OCc1cccc(F)c1 [Compound 96] |
| < 50 | Cc1nsc(-c2ccc(-c3ccc(C4(C(=O)O)CC4)cc3)cc2)c1NC(=O)OCc1cccc(Cl)c1 [Compound 97] |
| 50 to 500 | Cc1nsc(-c2ccc(-c3ccc(C4(C(=O)O)CC4)cc3)cc2)c1NC(=O)OCc1ccc(F)cc1 [Compound 98] |
| 50 to 500 | Cc1nsc(-c2ccc(-c3ccc(C4(C(=O)O)CC4)cc3)cc2)c1NC(=O)OCc1ccc(Cl)cc1 [Compound 100] |
| 50 to 500 | Cc1nsc(-c2ccc(-c3ccc(C4(C(=O)O)CC4)cc3)cc2)c1NC(=O)OCc1ccc(F)cc1Cl [Compound 102] |
| 50 to 500 | C[C@@H](OC(=O)Nc1scnc1-c1ccc(-c2ccc(C3(C(=O)O)CC3)cc2)cc1)c1ccccc1 [Compound 106] |
| 50 to 500 | O=C(Nc1scnc1-c1ccc(-c2ccc(C3(C(=O)O)CC3)cc2)cc1)OCc1ccccc1 [Compound 108] |
| 50 to 500 | C[C@@H](OC(=O)Nc1ncsc1-c1ccc(-c2ccc(C3(C(=O)O)CC3)cc2)cc1)c1ccccc1 [Compound 109] |
| 50 to 500 | C[C@@H](OC(=O)Nc1ncsc1-c1ccc(-c2ccc(C3(C(=O)O)CC3)cc2)cc1)c1ccccc1Cl [Compound 110] |
| < 50 | C[C@@H](OC(=O)Nc1cnsc1-c1ccc(-c2ccc(C3(C(=O)O)CC3)cc2)cc1)c1ccccc1 [Compound 114] |
| < 50 | Cc1cc(-c2ccc(C3(C(=O)O)CC3)cc2)ccc1-c1snc(C)c1NC(=O)O[C@H](C)c1ccccc1Cl [Compound 115] |
| 50 to 500 | Cc1cc(-c2ccc(-c3snc(C)c3NC(=O)O[C@H](C)c3ccccc3Cl)cc2)ccc1CC(=O)O [Compound 118] |
| < 50 | Cc1cc(-c2snc(C)c2NC(=O)O[C@H](C)c2ccccc2Cl)c(F)cc1-c1ccc(C2(C(=O)O)CC2)cc1 [Compound 121] |
